Where two headings read alike, the source gives them in different places.
Experiments:
HCT116 WT cells = assay: HCT116 WT cell line proliferation (CellTiter-Glo cell viability, 6 days); assay type: cell-based; conditions: HCT116 WT (parent) cells, 6 days of treatment, CellTiter-Glo cell viability, read-out: HCT-116 WT IC50
How it was run: (§1)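 Isogenic HCT116 pair (both MTAP alleles knocked out vs parent) in RPMI 1640 + 10% FBS, seeded overnight at 37° C, 5% CO2, then exposed 6 days to 8- or 9-point 1:3 dilutions from 1 or 10 μM. CellTiter-Glo luminescence; IC50 from sigmoidal fit, Hill slope fixed −1, top 100%, or 4-parameter logistic.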

HCT116 MTAP null cells = assay: HCT116 MTAP null cell line proliferation (CellTiter-Glo cell viability, 6 days); assay type: cell-based; conditions: HCT116 MTAP null cells, 6 days of treatment, CellTiter-Glo cell viability, read-out: HCT-116 MTAP null IC50
How it was run: as §1

## C[C@H]1OCc2c1c(N)nc1ccc(C(=O)N3CCOC[C@H]3c3ccc(F)c(OC(F)(F)F)c3)cc21 (racemic) [Example 373, ((3R)-4-amino-3-methyl-1,3-dihydrofuro[3,4-c]quinolin-8-yl)((3R)-3-(4-fluoro-3-(trifluoromethoxy)phenyl)-4-morpholinyl)methanone and ((3R)-4-amino-3-methyl-1,3-dihydrofuro[3,4-c]quinolin-8-yl)((3S)-3-(4-fluoro-3-(trifluoromethoxy)phenyl)-4-morpholinyl)methanone]
HCT116 WT cells; Homo sapiens, HCT-116, 144 h
  IC50: 7820 nM
HCT116 MTAP null cells; HCT116-MTAP null, 144 h
  IC50: 442 nM

## C[C@H]1OCc2c1c(N)nc1ccc(C(=O)N3CCOC[C@H]3c3ccc(F)c(C(F)(F)F)c3)cc21 (racemic) [Example 374, ((3R)-4-amino-3-methyl-1,3-dihydrofuro [3,4-c]quinolin-8-yl)((3R)-3-(4-fluoro-3-(trifluoromethyl)phenyl)-4-morpholinyl)methanone and ((3R)-4-amino-3-methyl-1,3-dihydrofuro[3,4-c]quinolin-8-yl)((3S)-3-(4-fluoro-3-(trifluoromethyl)phenyl)-4-morpholinyl)methanone]
HCT116 WT cells; Homo sapiens, HCT-116, 144 h
  IC50: 9890 nM
HCT116 MTAP null cells; HCT116-MTAP null, 144 h
  IC50: 161 nM

## C[C@H]1COC[C@@H](c2ccc(OC(F)(F)F)cn2)N1C(=O)c1cc2c3c(c(N)nc2cc1Cl)COC3 (racemic) [Example 375, (4-amino-7-chloro-1,3-dihydrofuro[3,4-c]quinolin-8-yl)((3R,5S)-3-methyl-5-(5-(trifluoromethoxy)-2-pyridinyl)-4-morpholinyl)methanone and (4-amino-7-chloro-1,3-dihydrofuro[3,4-c]quinolin-8-yl)((3S,5R)-3-methyl-5-(5-(trifluoromethoxy)-2-pyridinyl)-4-morpholinyl)methanone]
HCT116 WT cells; Homo sapiens, HCT-116, 144 h
  IC50: 58 nM
HCT116 MTAP null cells; HCT116-MTAP null, 144 h
  IC50: 3 nM

## C[C@H]1COC[C@@H](c2ccc(OC(F)(F)F)cn2)N1C(=O)c1ccc2nc(N)c3c(c2c1)COC3 (racemic) [Example 376, (4-amino-1,3-dihydrofuro[3,4-c]quinolin-8-yl)((3R,5S)-3-methyl-5-(5-(trifluoromethoxy)-2-pyridinyl)-4-morpholinyl)methanone and (4-amino-1,3-dihydrofuro[3,4-c]quinolin-8-yl)((3S,5R)-3-methyl-5-(5-(trifluoromethoxy)-2-pyridinyl)-4-morpholinyl)methanone]
HCT116 WT cells; Homo sapiens, HCT-116, 144 h
  IC50: 1220 nM
HCT116 MTAP null cells; HCT116-MTAP null, 144 h
  IC50: 29 nM

## C[C@H]1OCc2c1c(N)nc1ccc(C(=O)N3[C@@H](C)COC[C@H]3c3ccc(OC(F)(F)F)cn3)cc21 (racemic) [Example 377, ((3R)-4-amino-3-methyl-1,3-dihydrofuro[3,4-c]quinolin-8-yl)((3R,5S)-3-methyl-5-(5-(trifluoromethoxy)-2-pyridinyl)-4-morpholinyl)methanone and ((3R)-4-amino-3-methyl-1,3-dihydrofuro[3,4-c]quinolin-8-yl)((3S,5R)-3-methyl-5-(5-(trifluoromethoxy)-2-pyridinyl)-4-morpholinyl)methanone]
HCT116 WT cells; Homo sapiens, HCT-116, 144 h
  IC50: 1110 nM
HCT116 MTAP null cells; HCT116-MTAP null, 144 h
  IC50: 37 nM

## C[C@H]1COC[C@@H](c2ccc(OC(F)(F)F)cn2)N1C(=O)c1cc2c3c(c(N)nc2cc1F)COC3 (racemic) [Example 378, (4-amino-7-fluoro-1,3-dihydrofuro[3,4-c]quinolin-8-yl)((3R,5S)-3-methyl-5-(5-(trifluoromethoxy)-2-pyridinyl)-4-morpholinyl)methanone and (4-amino-7-fluoro-1,3-dihydrofuro[3,4-c]quinolin-8-yl)((3S,5R)-3-methyl-5-(5-(trifluoromethoxy)-2-pyridinyl)-4-morpholinyl)methanone]
HCT116 WT cells; Homo sapiens, HCT-116, 144 h
  IC50: 190 nM
HCT116 MTAP null cells; HCT116-MTAP null, 144 h
  IC50: 15 nM

## C[C@@H]1OCc2c1c(N)nc1cnc(C(=O)N3[C@H](C)COC[C@@H]3c3ccc(OC(F)(F)F)cn3)cc21 (racemic) [Example 379, ((3S)-4-amino-3-methyl-1,3-dihydrofuro[3,4-c][1,7]naphthyridin-8-yl)((3R,5S)-3-methyl-5-(5-(trifluoromethoxy)-2-pyridinyl)-4-morpholinyl)methanone and ((3S)-4-amino-3-methyl-1,3-dihydrofuro[3,4-c][1,7]naphthyridin-8-yl)((3S,5R)-3-methyl-5-(5-(trifluoromethoxy)-2-pyridinyl)-4-morpholinyl)methanone]
HCT116 WT cells; Homo sapiens, HCT-116, 144 h
  IC50: > 10000 nM
HCT116 MTAP null cells; HCT116-MTAP null, 144 h
  IC50: 927 nM

## C[C@@H]1COC[C@H](c2ccc(OC(F)(F)F)cn2)N1C(=O)c1cc2c3c(c(N)nc2cn1)[C@@H](C)OC3 (racemic) [Example 380, ((3R)-4-amino-3-methyl-1,3-dihydrofuro[3,4-c][1,7]naphthyridin-8-yl)((3R,5S)-3-methyl-5-(5-(trifluoromethoxy)-2-pyridinyl)-4-morpholinyl)methanone and ((3R)-4-amino-3-methyl-1,3-dihydrofuro[3,4-c][1,7]naphthyridin-8-yl)((3S,5R)-3-methyl-5-(5-(trifluoromethoxy)-2-pyridinyl)-4-morpholinyl)methanone]
HCT116 WT cells; Homo sapiens, HCT-116, 144 h
  IC50: 906 nM
HCT116 MTAP null cells; HCT116-MTAP null, 144 h
  IC50: 48 nM

## C[C@@H]1COC[C@H](c2ccc(OC(F)F)nn2)N1C(=O)c1cc2c3c(c(N)nc2cn1)COC3 (racemic) [Example 381, (4-amino-1,3-dihydrofuro[3,4-c][1,7]naphthyridin-8-yl)((3R,5S)-3-(6-(difluoromethoxy)-3-pyridazinyl)-5-methyl-4-morpholinyl)methanone and (4-amino-1,3-dihydrofuro[3,4-c][1,7]naphthyridin-8-yl)((3S,5R)-3-(6-(difluoromethoxy)-3-pyridazinyl)-5-methyl-4-morpholinyl)methanone]
HCT116 WT cells
  IC50: 2570 nM
HCT116 MTAP null cells
  IC50: 84 nM

## Nc1nc2cnc(C(=O)N3CCOCC3c3ccc(OC(F)F)c(F)c3)cc2c2c1COC2 (racemic) [Example 383, (4-amino-1,3-dihydrofuro[3,4-c][1,7]naphthyridin-8-yl)((3R)-3-(4-(difluoromethoxy)-3-fluorophenyl)-4-morpholinyl)methanone and (4-amino-1,3-dihydrofuro[3,4-c][1,7]naphthyridin-8-yl)((3S)-3-(4-(difluoromethoxy)-3-fluorophenyl)-4-morpholinyl)methanone]
HCT116 WT cells
  IC50: 13900 nM
HCT116 MTAP null cells
  IC50: 437 nM

## Nc1nc2cc(Cl)c(C(=O)N3CCOCC3c3ccc(OC(F)F)nc3)cc2c2c1COC2 (racemic) [Example 384, (4-amino-7-chloro-1,3-dihydrofuro[3,4-c]quinolin-8-yl)((3R)-3-(6-(difluoromethoxy)-3-pyridinyl)-4-morpholinyl)methanone and (4-amino-7-chloro-1,3-dihydrofuro[3,4-c]quinolin-8-yl)((3S)-3-(6-(difluoromethoxy)-3-pyridinyl)-4-morpholinyl)methanone]
HCT116 WT cells
  IC50: 1680 nM
HCT116 MTAP null cells
  IC50: 23 nM

## Nc1nc2cc(F)c(C(=O)N3CCOCC3c3ccc(OC(F)F)nc3)cc2c2c1COC2 (racemic) [Example 385, (4-amino-7-fluoro-1,3-dihydrofuro[3,4-c]quinolin-8-yl)((3R)-3-(6-(difluoromethoxy)-3-pyridinyl)-4-morpholinyl)methanone and (4-amino-7-fluoro-1,3-dihydrofuro[3,4-c]quinolin-8-yl)((3S)-3-(6-(difluoromethoxy)-3-pyridinyl)-4-morpholinyl)methanone]
HCT116 WT cells
  IC50: 5830 nM
HCT116 MTAP null cells
  IC50: 151 nM

## Nc1nc2cnc(C(=O)N3CCOCC3c3ccc(OC(F)(F)F)cc3F)cc2c2c1COC2 (racemic) [Example 386, (4-amino-1,3-dihydrofuro[3,4-c][1,7]naphthyridin-8-yl)((3R)-3-(2-fluoro-4-(trifluoromethoxy)phenyl)-4-morpholinyl)methanone and (4-amino-1,3-dihydrofuro[3,4-c][1,7]naphthyridin-8-yl)((3S)-3-(2-fluoro-4-(trifluoromethoxy)phenyl)-4-morpholinyl)methanone]
HCT116 WT cells
  IC50: 5020 nM
HCT116 MTAP null cells
  IC50: 344 nM

## Nc1nc2cnc(C(=O)N3CCOCC3c3ccc(C(F)(F)F)cc3F)cc2c2c1COC2 (racemic) [Example 387, (4-amino-1,3-dihydrofuro[3,4-c][1,7]naphthyridin-8-yl)((3R)-3-(2-fluoro-4-(trifluoromethyl)phenyl)-4-morpholinyl)methanone and (4-amino-1,3-dihydrofuro[3,4-c][1,7]naphthyridin-8-yl)((3S)-3-(2-fluoro-4-(trifluoromethyl)phenyl)-4-morpholinyl)methanone]
HCT116 WT cells
  IC50: 7250 nM
HCT116 MTAP null cells
  IC50: 193 nM

## N#Cc1ccc(C2COCCN2C(=O)c2cc3c4c(c(N)nc3cn2)COC4)cc1 (racemic) [Example 388, 4-((3R)-4-((4-amino-1,3-dihydrofuro[3,4-c][1,7]naphthyridin-8-yl)carbonyl)-3-morpholinyl)benzonitrile and 4-((3S)-4-((4-amino-1,3-dihydrofuro[3,4-c][1,7]naphthyridin-8-yl)carbonyl)-3-morpholinyl)benzonitrile]
HCT116 WT cells; Homo sapiens, HCT-116, 144 h
  IC50: 32800 nM
HCT116 MTAP null cells; HCT116-MTAP null, 144 h
  IC50: 838 nM

## C[C@H]1COC[C@@H](c2ccc(C#N)cc2)N1C(=O)c1cc2c3c(c(N)nc2cn1)COC3 (racemic) [Example 389, 4-((3R,5S)-4-((4-amino-1,3-dihydrofuro[3,4-c][1,7]naphthyridin-8-yl)carbonyl)-5-methyl-3-morpholinyl)benzonitrile and 4-((3S,5R)-4-((4-amino-1,3-dihydrofuro[3,4-c][1,7]naphthyridin-8-yl)carbonyl)-5-methyl-3-morpholinyl)benzonitrile]
HCT116 WT cells; Homo sapiens, HCT-116, 144 h
  IC50: 1610 nM
HCT116 MTAP null cells; HCT116-MTAP null, 144 h
  IC50: 52 nM
